# From patent EP4417602A1, “SUBSTITUTED PYRAZOLE CARBOXAMIDES, SALTS THEREOF AND THEIR USE AS HERBICIDALLY ACTIVE SUBSTANCES” (Bayer AG, priority 2023, dated 2024)
# How the values were obtained:
# SETVI = test: A. Herbicidal pre-emergence action on harmful plants (Tables A); type: in vivo, Setaria viridis; settings: visual grading after ca. 3 weeks vs untreated controls, 100% = plants have died off, 0% = as control plants
# Method in brief: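 Values are visual percent damage relative to untreated controls, scored ca. 3 weeks after the compound was sprayed on the covering soil of sown pots (sandy loam) at rates up to 1280 g/ha, formulated as WP or EC with 0.5% additive.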
# POAAN = test: B. Herbicidal post-emergence action on harmful plants (Tables B); type: in vivo, Poa annua
# Method in brief: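 Greenhouse weeds grown in sandy loam were sprayed post-emergence at the one-leaf stage, 2-3 weeks after sowing. Compounds were applied as WP or EC in water with 0.5% additive at 600 L/ha, at 1280 g/ha or below. Visual damage was rated after about 3 weeks versus untreated plants (0-100%).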
# DIGSA = test: C. Herbicidal pre-emergence action, weed and crop plants (Tables C); type: in vivo, Digitaria sanguinalis
# Source text: (§1) Seeds of mono- and dicotyledonous weed plants and crop plants were sown, in plastic or organic planting pots, in sandy loam and covered with soil. The compounds according to the invention, formulated in the form of wettable powders (WP) or as emulsifiable concentrates (EC), were applied to the surface of the covering soil as aqueous suspension or emulsion, with the addition of 0.5% of an additive, at an application rate of 6001 of water/ha (converted). Following treatment, the pots were placed in a greenhouse and kept under optimum growth conditions for the test plants. The visual grading of the damage to the test plants was carried out after ca. 3 weeks in comparison to untreated controls (herbicidal effect in percent (%): 100% effect = plants have died off, 0% effect = as control plants). Tables C1 to C12 below show the effects of selected compounds of the general formula (I) according to table 1 on various harmful plants and an application rate corresponding to 320 g/ha or below obtained by the experimental procedure mentioned above. Table C1: pre-emergence activity at 320g/ha against KCHSC in %
# ECHCG = test: as above; type: in vivo, Echinochloa crus-galli
# Source text: as §1
# MATIN = test: as above; type: in vivo, Matricaria inodora; settings: application rate 320 g/ha; Table C8
# Source text: as §1
# VIOTR = test: as above; type: in vivo, Viola tricolor
# Method in brief: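 Seeds were sown in sandy loam and covered with soil. WP or EC formulations were sprayed onto the soil surface as aqueous suspension or emulsion with 0.5% additive, at rates of 320 g/ha or below. Plants were kept in a greenhouse, and damage was scored visually after about 3 weeks as % effect versus untreated controls (100% = dead, 0% = like control).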
# GLXMA = test: D. Pre-emergence effects on crop plants (Tables D); type: in vivo, Glycine max; settings: crop plant
# Method in brief: (§2)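 Seeds sown in sandy loam and covered; WP or EC formulations sprayed onto the soil surface as aqueous suspension/emulsion with 0.5% additive, at 320 g/ha or below. Greenhouse-grown; visual damage scored after ca. 3 weeks against untreated controls (0% = as control, 100% = plants dead).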
# BRSNW [1] = test: D. Pre-emergence effects on crop plants (Tables D); type: in vivo, Brassica napus; settings: crop plant
# Method in brief: as §2
# ZEAMX = test: F. Post-emergence effects on crop plants (Tables F); type: in vivo, Zea mays; settings: crop plant
# Method in brief: (§3)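 Plants were grown in sandy loam in a greenhouse and sprayed post-emergence at the single-leaf stage, 2–3 weeks after sowing. Visual damage was scored after ca. 3 weeks against untreated controls (0% = as control, 100% = dead).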
# BRSNW [2] = test: as above; type: in vivo, Brassica napus; settings: crop plant
# Method in brief: as §3
# TRZAS = test: as above; type: in vivo, Triticum aestivum; settings: crop plant
# Method in brief: as §3
# [3] = application rate 1280 g/ha, Table B7a
# [4] = application rate 80 g/ha, Table C5b
# [5] = application rate 320 g/ha, Table C5a
# [6] = application rate 320 g/ha, Table C6a
# [7] = application rate 80 g/ha, Table C12b
# [8] = application rate 320 g/ha, Table C12a
# [9] = application rate 80 g/ha, Table D4b
# [10] = application rate 320 g/ha, Table D4a
# [11] = application rate 320 g/ha, Table B7b
# [12] = application rate 80 g/ha, Table C6b
pre-emergence activity against GLXMA (GLXMA; [9]) [%],pre-emergence activity against GLXMA (GLXMA; [10]) [%],Structure (SMILES),pre-emergence activity against SETVI (SETVI; application rate 320 g/ha) [%],pre-emergence activity against SETVI (SETVI; application rate 1280 g/ha) [%],post-emergence activity against POAAN (POAAN; [3]) [%],pre-emergence activity against DIGSA (DIGSA; [4]) [%],pre-emergence activity against DIGSA (DIGSA; [5]) [%],pre-emergence activity against ECHCG (ECHCG; [6]) [%],pre-emergence activity against MATIN (MATIN) [%],pre-emergence activity against VIOTR (VIOTR; [8]) [%],pre-emergence activity against BRSNW in % (BRSNW [1]; application rate 80 g/ha) [%],pre-emergence activity against BRSNW in % (BRSNW [1]; application rate 320 g/ha) [%],post-emergence activity against ZEAMX in % (ZEAMX; application rate 80 g/ha) [%],post-emergence activity against ZEAMX in % (ZEAMX; application rate 320 g/ha) [%],post-emergence activity against BRSNW in % (BRSNW [2]; application rate 320 g/ha) [%],pre-emergence activity against ECHCG (ECHCG; [12]) [%],post-emergence activity against TRZAS in % (TRZAS; application rate 80 g/ha) [%],post-emergence activity against TRZAS in % (TRZAS; application rate 320 g/ha) [%],other results
0,0,C=C(c1ccccc1F)C1CCCN1C(=O)c1cn(C)nc1COC (racemic) [Example I-023],90,90,90,90,100,90,80,80,0,0,0,20,0,–,–,–,pre-emergence activity against VIOTR (VIOTR; [7]): 80%
–,0,COCc1c(C(=O)N2CCCC2Cc2ccccc2Cl)cnn1C (racemic) [Example I-170],90,90,90,–,–,90,80,–,0,0,0,–,0,90,20,–,post-emergence activity against POAAN (POAAN; [11]): 90%
–,0,"COCc1c(C(=O)N2CCCC2Cc2ccccc2F)cnn1C (single isomer, unassigned) [Example I-157]",90,90,100,–,90,80,–,90,0,0,0,0,0,–,0,20,post-emergence activity against POAAN (POAAN; [11]): 100%
20,–,Cn1cc(C(=O)N2CCCC2Cc2ccc(F)cc2F)c(COc2ccccc2)n1 (racemic) [Example I-008],–,90,90,–,90,90,–,90,0,10,0,0,10,–,20,20,–
–,–,Cn1cc(C(=O)N2CCCC2Cc2ccccc2F)c(COc2ccccc2)n1 (racemic) [Example I-006],–,–,90,–,100,–,–,–,0,10,10,20,10,–,20,20,–
0,–,COCc1nn(C(=O)OC(C)(C)C)cc1C(=O)N1CCCC1Cc1ccccc1F (racemic) [Example I-040],90,90,–,80,90,90,80,–,0,0,0,0,0,80,–,–,–
–,–,COCc1nn(C)cc1C(=O)N1CCCC1Cc1ccccc1F (racemic) [Example I-002],90,90,90,90,90,90,80,80,0,0,0,0,–,–,–,–,post-emergence activity against BRSNW in % (BRSNW [2]; application rate 80 g/ha): 10%
–,–,"COCc1nn(C)cc1C(=O)N1CCCC1Cc1ccccc1F (single isomer, unassigned) [Example I-003]",100,100,90,–,–,90,80,90,0,0,–,–,0,90,–,–,"pre-emergence activity against SETVI (SETVI; application rate 80 g/ha): 100%; post-emergence activity against POAAN (POAAN; application rate 80 g/ha, Table B7c): 90%; post-emergence activity against POAAN (POAAN; [11]): 90%; pre-emergence activity against VIOTR (VIOTR; [7]): 80%"
0,0,COCc1nn2c(c1C(=O)N1CCCC1Cc1ccccc1F)CCC2 (racemic) [Example I-022],90,90,90,–,90,90,–,80,0,0,0,0,0,–,0,0,–
0,10,"COCc1nn(C)cc1C(=O)N1CCCC1C(O)c1ccccc1F (single isomer, unassigned) [Example I-053]",90,90,–,80,90,100,80,–,10,–,0,–,20,90,10,20,–
0,–,CNC(=O)n1cc(C(=O)N2CCCC2Cc2ccccc2F)c(COC)n1 (racemic) [Example I-051],90,90,90,90,100,100,–,80,0,0,20,–,20,100,–,–,pre-emergence activity against VIOTR (VIOTR; [7]): 80%
